# Measurements as given in PMC11435058, “Synthesis of New Thiazole-Privileged Chalcones as Tubulin Polymerization Inhibitors with Potential Anticancer Activities” (Pharmaceuticals, 2024).
# What was measured:
# tubulin = test: In vitro tubulin polymerization inhibition assay; format: biochemical; conditions: 4 mg/mL tubulin, 37°C, absorbance at 340 nm
# Method: 4.2.2. In Vitro Tubulin Polymerization Inhibition Assay.
# 2p, and the reference drug CD -4) with the microtubule system. Specifically, the in vitro inhibition of tubulin polymerization was evaluated for these compounds. The standard tubulin polymerization reaction was carried out, containing 100 μL of 4 mg/mL tubulin in a buffer solution of 80 mM PIPES (pH 6.9), 0.5 mM EGTA, 2 mM MgCl2, and 1 mM GTP. Polymerization was initiated by incubating the reaction […]
# Under these conditions, polymerization typically reaches a maximum absorbance of […]
# growth, and steady state. In this experimental set up, an absorbance of 0.1 at 340 nm corresponds to approximately 1 mg/mL of polymerized tubulin, meaning that around […]
# 40% of the tubulin is polymerized, allowing for the detection of both enhancers and inhibitors of polymerization. The inhibitory effect of each compound on tubulin polymerization was quantified by determining the IC50 values, which were reported as the mean ± standard deviation from three independent experiments. […]
# HCC-2998 = test: NCI-60 anticancer screen (SRB; single dose and five doses)
# HCT-116 = test: as above; conditions: Homo sapiens
# HCT-15 = test: as above; conditions: Homo sapiens
# LOX IMVI = test: as above; conditions: Homo sapiens
# UACC-257 = test: as above; conditions: Homo sapiens
# OVCAR-8 = test: as above; conditions: Homo sapiens
# UO-31 = test: as above; conditions: Homo sapiens
structure (smiles),measurement,setting,value
"COc1cc(/C=C/C(=O)c2sc(=S)[nH]c2C)cc(OC)c1OC [2p, (E)-1-(4-Methyl-2-Thioxo-2,3-Dihydrothiazol-5-yl)-3-(3,4,5-Trimethoxyphenyl)Prop-2-En-1-One]",IC50,tubulin,25.1 µM
same,GI50,"HCC-2998; Homo sapiens, HCC 2998",5.13 µM
same,IC50,"HCC-2998; Homo sapiens, HCC 2998",11.8 µM
same,activity at 10 µM,"HCC-2998; Homo sapiens, HCC 2998, 48 h, read-out: Growth Percentage",19%
same,CC50,"HCC-2998; Homo sapiens, HCC 2998, read-out: LC50",44.7 µM
same,TGI,"HCC-2998; five-dose, Colon Cancer HCC-2998",17.38 µM
same,GI50,HCT-116; HCT-116,3.16 µM
same,IC50,HCT-116; HCT-116,3.63 µM
same,activity at 10 µM,"HCT-116; HCT-116, 48 h, read-out: Growth Percentage",6.81%
same,CC50,"HCT-116; HCT-116, read-out: LC50",69.2 µM
same,IC (TGI),"HCT-116; HCT-116, read-out: TGI",14.4 µM
same,GI50,HCT-15; HCT-15,3.24 µM
same,IC50,HCT-15; HCT-15,4.17 µM
same,activity at 10 µM,"HCT-15; HCT-15, 48 h, read-out: Growth Percentage",-3.26%
same,CC50,"HCT-15; HCT-15, read-out: LC50",74.1 µM
same,IC (TGI),"HCT-15; HCT-15, read-out: TGI",15.5 µM
same,GI50,LOX IMVI,3.24 µM
same,IC50,LOX IMVI,4.47 µM
same,activity at 10 µM,"LOX IMVI; 48 h, read-out: Growth Percentage",17.1%
same,CC50,LOX IMVI; read-out: LC50,38.9 µM
same,IC (TGI),LOX IMVI; read-out: TGI,12 µM
same,GI50,UACC-257; UACC-257,5.13 µM
same,IC50,UACC-257; UACC-257,18.6 µM
same,activity at 10 µM,"UACC-257; UACC-257, 48 h, read-out: Growth Percentage",42.1%
same,CC50,"UACC-257; UACC-257, read-out: LC50",75.9 µM
same,IC (TGI),"UACC-257; UACC-257, read-out: TGI",21.9 µM
same,GI50,OVCAR-8; OVCAR-8,2.14 µM
same,IC50,OVCAR-8; OVCAR-8,3.55 µM
same,activity at 10 µM,"OVCAR-8; OVCAR-8, 48 h, read-out: Growth Percentage",4.32%
same,CC50,"OVCAR-8; OVCAR-8, read-out: LC50",45.7 µM
same,IC (TGI),"OVCAR-8; OVCAR-8, read-out: TGI",5.5 µM
same,GI50,UO-31; UO-31,3.02 µM
same,IC50,UO-31; UO-31,7.76 µM
same,IC (TGI),"UO-31; UO-31, read-out: TGI",15.5 µM
